# Results as given in ChEMBL document CHEMBL5257023, “Identification of leads for antiproliferative activity on MDA-MB-435 human breast cancer cells through pharmacophore and CYP1A1-mediated metabolism” (Eur J Med Chem, 2016).
# Key:
# MDA-MB-468 [1] = test: Anticancer activity against human MDA-MB-468 cells assessed as inhibition of cell growth incubated for 48 hrs by SRB assay; assay type: functional; details: for CC50: read-out: LC50 (the source's name)
# MCF7 [2] = test: Anticancer activity against human MCF7 cells assessed as inhibition of cell growth incubated for 48 hrs by SRB assay; assay type: functional; details: for CC50: read-out: LC50 (the source's name)
# MDA-MB-435 [3] = test: Anticancer activity against human MDA-MB-435 cells assessed as inhibition of cell growth incubated for 48 hrs by SRB assay; assay type: functional
# NCI-H226 [4] = test: Anticancer activity against human NCI-H226 cells assessed as inhibition of cell growth incubated for 48 hrs by SRB assay; assay type: functional
# Cytochrome P450 1A1 = biological target: T1, Cytochrome P450 1A1 (Homo sapiens, UniProt P04798); test: Inhibition of recombinant CYP1A1 (unknown origin) assessed as decrease in EROD activity using 7-ethoxyresorufin as substrate incubated for 15 mins by resorufin dye based spectrofluorimetry; assay type: ADME
# T1 sequence (P04798 whole entry): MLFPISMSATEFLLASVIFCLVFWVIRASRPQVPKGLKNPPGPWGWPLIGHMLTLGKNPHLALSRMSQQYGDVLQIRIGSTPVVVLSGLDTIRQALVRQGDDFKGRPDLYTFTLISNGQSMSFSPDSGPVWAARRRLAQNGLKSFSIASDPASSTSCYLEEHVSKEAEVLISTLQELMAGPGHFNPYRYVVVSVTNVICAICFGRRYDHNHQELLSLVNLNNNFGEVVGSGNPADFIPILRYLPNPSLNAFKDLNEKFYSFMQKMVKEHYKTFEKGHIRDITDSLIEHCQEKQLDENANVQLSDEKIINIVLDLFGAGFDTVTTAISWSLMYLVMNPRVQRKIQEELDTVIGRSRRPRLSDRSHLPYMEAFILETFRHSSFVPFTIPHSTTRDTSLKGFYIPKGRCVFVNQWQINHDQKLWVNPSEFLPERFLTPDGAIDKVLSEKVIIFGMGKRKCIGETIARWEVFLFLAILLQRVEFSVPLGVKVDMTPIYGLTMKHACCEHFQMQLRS
# MDA-MB-468 [5] = test: Anticancer activity against human MDA-MB-468 cells assessed as cell growth at 0.1 uM incubated for 48 hrs by SRB assay; assay type: functional; details: read-out: Activity
# MDA-MB-468 [6] = test: Anticancer activity against human MDA-MB-468 cells assessed as cell growth at 1 uM incubated for 48 hrs by SRB assay; assay type: functional; details: read-out: Activity
# MDA-MB-468 [7] = test: Anticancer activity against human MDA-MB-468 cells assessed as cell growth at 10 uM incubated for 48 hrs by SRB assay; assay type: functional; details: read-out: Activity
# MDA-MB-468 [8] = test: Anticancer activity against human MDA-MB-468 cells assessed as cell growth at 100 uM incubated for 48 hrs by SRB assay; assay type: functional; details: read-out: Activity
# MCF7 [9] = test: Anticancer activity against human MCF7 cells assessed as cell growth at 0.1 uM incubated for 48 hrs by SRB assay; assay type: functional; details: read-out: Activity
# MCF7 [10] = test: Anticancer activity against human MCF7 cells assessed as cell growth at 1 uM incubated for 48 hrs by SRB assay; assay type: functional; details: read-out: Activity
# MCF7 [11] = test: Anticancer activity against human MCF7 cells assessed as cell growth at 10 uM incubated for 48 hrs by SRB assay; assay type: functional; details: read-out: Activity
# MCF7 [12] = test: Anticancer activity against human MCF7 cells assessed as cell growth at 100 uM incubated for 48 hrs by SRB assay; assay type: functional; details: read-out: Activity
# NCI-H226 [13] = test: Anticancer activity against human NCI-H226 cells assessed as cell growth at 0.1 uM incubated for 48 hrs by SRB assay; assay type: functional; details: read-out: Activity
# NCI-H226 [14] = test: Anticancer activity against human NCI-H226 cells assessed as cell growth at 1 uM incubated for 48 hrs by SRB assay; assay type: functional; details: read-out: Activity
# NCI-H226 [15] = test: Anticancer activity against human NCI-H226 cells assessed as cell growth at 10 uM incubated for 48 hrs by SRB assay; assay type: functional; details: read-out: Activity
# NCI-H226 [16] = test: Anticancer activity against human NCI-H226 cells assessed as cell growth at 100 uM incubated for 48 hrs by SRB assay; assay type: functional; details: read-out: Activity
# MDA-MB-435 [17] = test: Anticancer activity against human MDA-MB-435 cells assessed as cell growth at 0.1 uM incubated for 48 hrs by SRB assay; assay type: functional; details: read-out: Activity
# MDA-MB-435 [18] = test: Anticancer activity against human MDA-MB-435 cells assessed as cell growth at 1 uM incubated for 48 hrs by SRB assay; assay type: functional; details: read-out: Activity
# MDA-MB-435 [19] = test: Anticancer activity against human MDA-MB-435 cells assessed as cell growth at 10 uM incubated for 48 hrs by SRB assay; assay type: functional; details: read-out: Activity
# MDA-MB-435 [20] = test: Anticancer activity against human MDA-MB-435 cells assessed as cell growth at 100 uM incubated for 48 hrs by SRB assay; assay type: functional; details: read-out: Activity
# CYP1A1 [21] = biological target: T2, CYP1A1 (Homo sapiens, UniProt P04798); test: Inhibition of recombinant CYP1A1 (unknown origin) assessed as residual enzyme activity using 7-ethoxyresorufin as substrate at 0.01 uM incubated for 15 mins by resorufin dye based spectrofluorimetry (reference value: 100%); assay type: ADME; details: recombinant CYP1A1, probe 7-ethoxyresorufin, read-out: Activity
# T2 sequence (P04798 whole entry): T1 sequence (P04798 whole entry)
# CYP1A1 [22] = biological target: T2, CYP1A1; test: Inhibition of recombinant CYP1A1 (unknown origin) assessed as residual enzyme activity using 7-ethoxyresorufin as substrate at 0.1 uM incubated for 15 mins by resorufin dye based spectrofluorimetry (reference value: 100%); assay type: ADME; details: recombinant CYP1A1, probe 7-ethoxyresorufin, read-out: Activity
# CYP1A1 [23] = biological target: T2, CYP1A1; test: Inhibition of recombinant CYP1A1 (unknown origin) assessed as residual enzyme activity using 7-ethoxyresorufin as substrate at 5 uM incubated for 15 mins by resorufin dye based spectrofluorimetry (reference value: 100%); assay type: ADME; details: recombinant CYP1A1, probe 7-ethoxyresorufin, read-out: Activity
# CYP1A1 [24] = biological target: T2, CYP1A1; test: Inhibition of recombinant CYP1A1 (unknown origin) assessed as residual enzyme activity using 7-ethoxyresorufin as substrate at 50 uM incubated for 15 mins by resorufin dye based spectrofluorimetry (reference value: 100%); assay type: ADME; details: recombinant CYP1A1, probe 7-ethoxyresorufin, read-out: Activity
# CYP1A1 [25] = biological target: T2, CYP1A1; test: Inhibition of recombinant CYP1A1 (unknown origin) assessed as residual enzyme activity using 7-ethoxyresorufin as substrate at 100 uM incubated for 15 mins by resorufin dye based spectrofluorimetry (reference value: 100%); assay type: ADME; details: recombinant CYP1A1, probe 7-ethoxyresorufin, read-out: Activity
# CYP1A1 [26] = biological target: T2, CYP1A1; test: Inhibition of recombinant CYP1A1 (unknown origin) assessed as residual enzyme activity using 7-ethoxyresorufin as substrate at 1 uM incubated for 15 mins by resorufin dye based spectrofluorimetry (reference value: 100%); assay type: ADME; details: recombinant CYP1A1, probe 7-ethoxyresorufin, read-out: Activity
Compound,GI50 (MDA-MB-468 [1]),TGI (MDA-MB-468 [1]),CC50 (MDA-MB-468 [1]),GI50 (MCF7 [2]),TGI (MCF7 [2]),CC50 (MCF7 [2]),GI50 (MDA-MB-435 [3]),LC50 (MDA-MB-435 [3]),TGI (MDA-MB-435 [3]),GI50 (NCI-H226 [4]),LC50 (concentration killing 50% of cells) (NCI-H226 [4]),TGI (NCI-H226 [4]),IC50 (Cytochrome P450 1A1),growth at 0.1 µM (MDA-MB-468 [5]),growth at 1 µM (MDA-MB-468 [6]),growth at 10 µM (MDA-MB-468 [7]),growth at 100 µM (MDA-MB-468 [8]),growth at 0.1 µM (MCF7 [9]),growth at 1 µM (MCF7 [10]),growth at 10 µM (MCF7 [11]),also measured
Cc1cc(C)n2ncc(C(=O)NCc3ccc(Cl)cc3)c2n1,58.5 µM,> 100 µM,> 100 µM,57.7 µM,> 100 µM,> 100 µM,> 100 µM,> 100 µM,> 100 µM,> 100 µM,> 100 µM,> 100 µM,10 µM,90.9%,82.6%,77.6%,23.6%,90.1%,88.2%,80.4%,"growth at 100 µM (MCF7 [12]): 20.6%; growth at 0.1 µM (NCI-H226 [13]): 90.9%; growth at 1 µM (NCI-H226 [14]): 87.8%; growth at 10 µM (NCI-H226 [15]): 82.6%; growth at 100 µM (NCI-H226 [16]): 58.3%; growth at 0.1 µM (MDA-MB-435 [17]): 100%; growth at 1 µM (MDA-MB-435 [18]): 99.9%; growth at 10 µM (MDA-MB-435 [19]): 98.1%; growth at 100 µM (MDA-MB-435 [20]): 70%; activity at 0.25 h, 0.01 µM (CYP1A1 [21]): 98.7%; activity at 0.25 h, 0.1 µM (CYP1A1 [22]): 89.8%; activity at 0.25 h, 5 µM (CYP1A1 [23]): 71.8%; activity at 0.25 h, 50 µM (CYP1A1 [24]): 64.7%; activity at 0.25 h, 100 µM (CYP1A1 [25]): 50.8%"
Cc1sc2[nH]c(CNc3ccc(F)cc3)nc(=O)c2c1C,> 100 µM,> 100 µM,> 100 µM,65.8 µM,> 100 µM,> 100 µM,> 100 µM,> 100 µM,> 100 µM,> 100 µM,> 100 µM,> 100 µM,0.7 µM,99.2%,95%,94.4%,56.8%,96.5%,94%,84.1%,"growth at 100 µM (MCF7 [12]): 26.3%; growth at 0.1 µM (NCI-H226 [13]): 91.4%; growth at 1 µM (NCI-H226 [14]): 86.9%; growth at 10 µM (NCI-H226 [15]): 77.9%; growth at 100 µM (NCI-H226 [16]): 51.9%; growth at 0.1 µM (MDA-MB-435 [17]): 99.9%; growth at 1 µM (MDA-MB-435 [18]): 97.9%; growth at 10 µM (MDA-MB-435 [19]): 94.6%; growth at 100 µM (MDA-MB-435 [20]): 83.5%; activity at 0.25 h, 0.01 µM (CYP1A1 [21]): 91.7%; activity at 0.25 h, 0.1 µM (CYP1A1 [22]): 85.3%; activity at 0.25 h, 1 µM (CYP1A1 [26]): 46%; activity at 0.25 h, 5 µM (CYP1A1 [23]): 23.9%; activity at 0.25 h, 50 µM (CYP1A1 [24]): 13.5%; activity at 0.25 h, 100 µM (CYP1A1 [25]): 9.07%"
Nc1cc(-c2cc3cc(F)ccc3[nH]2)ccc1F,36.5 µM,84.7 µM,> 100 µM,69.5 µM,> 100 µM,> 100 µM,< 0.1 µM,> 100 µM,> 100 µM,62.3 µM,> 100 µM,> 100 µM,0.3 µM,100%,96.4%,50%,-14.4%,68.2%,63.9%,55%,"growth at 100 µM (MCF7 [12]): 44.5%; growth at 0.1 µM (NCI-H226 [13]): 97.7%; growth at 1 µM (NCI-H226 [14]): 83.2%; growth at 10 µM (NCI-H226 [15]): 63%; growth at 100 µM (NCI-H226 [16]): 30.2%; growth at 0.1 µM (MDA-MB-435 [17]): 29.5%; growth at 1 µM (MDA-MB-435 [18]): 21.5%; growth at 10 µM (MDA-MB-435 [19]): 17.7%; growth at 100 µM (MDA-MB-435 [20]): 14.9%; activity at 0.25 h, 0.01 µM (CYP1A1 [21]): 76.5%; activity at 0.25 h, 0.1 µM (CYP1A1 [22]): 60.9%; activity at 0.25 h, 1 µM (CYP1A1 [26]): 39.8%; activity at 0.25 h, 5 µM (CYP1A1 [23]): 22.4%; activity at 0.25 h, 50 µM (CYP1A1 [24]): 18.3%; activity at 0.25 h, 100 µM (CYP1A1 [25]): 17.5%"
